What was measured:
Mu-type opioid receptor [1] = biological target: T1, Mu-type opioid receptor (Homo sapiens, UniProt P35372); assay: Displacement of [3H]-DAMGO from human mu opiod receptor expressed in CHO cells at 1 uM incubated for 60 mins by liquid scintillation counting method relative to control; type: cell-based
[2] = biological target: T2, Delta-type opioid receptor (Homo sapiens, UniProt P41143); assay: Displacement of [3H]-DPDPE from human delta opiod receptor expressed in human HEK293 cells at 10 uM incubated for 60 mins by liquid scintillation counting method relative to control; type: cell-based
T2 sequence (P41143 whole entry): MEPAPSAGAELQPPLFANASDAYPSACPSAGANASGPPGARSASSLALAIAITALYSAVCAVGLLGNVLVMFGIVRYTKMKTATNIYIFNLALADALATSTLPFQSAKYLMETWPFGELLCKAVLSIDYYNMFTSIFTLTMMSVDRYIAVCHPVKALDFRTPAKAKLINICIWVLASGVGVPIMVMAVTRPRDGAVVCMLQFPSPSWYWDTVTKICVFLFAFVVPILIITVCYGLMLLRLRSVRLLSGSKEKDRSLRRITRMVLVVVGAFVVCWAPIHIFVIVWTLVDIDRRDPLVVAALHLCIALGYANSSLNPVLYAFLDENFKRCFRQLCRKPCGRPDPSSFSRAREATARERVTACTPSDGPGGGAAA

[3] = biological target: T3, Kappa-type opioid receptor (Homo sapiens, UniProt P41145); assay: Displacement of [3H]-U69593 from human kappa opiod receptor expressed in CHO cells at 1 uM incubated for 60 mins by liquid scintillation counting method relative to control; type: cell-based
T3 sequence (P41145 whole entry): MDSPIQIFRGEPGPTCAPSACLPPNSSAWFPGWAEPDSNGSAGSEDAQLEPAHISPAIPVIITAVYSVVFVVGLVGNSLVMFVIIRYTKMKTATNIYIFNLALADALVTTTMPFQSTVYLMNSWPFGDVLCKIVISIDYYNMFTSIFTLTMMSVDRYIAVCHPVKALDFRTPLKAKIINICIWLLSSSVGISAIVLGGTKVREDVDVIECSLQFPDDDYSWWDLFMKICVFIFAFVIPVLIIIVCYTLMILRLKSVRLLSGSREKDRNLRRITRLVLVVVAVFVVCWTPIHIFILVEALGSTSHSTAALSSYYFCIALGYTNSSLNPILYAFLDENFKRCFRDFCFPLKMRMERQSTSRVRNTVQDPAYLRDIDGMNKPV

[4] = biological target: T3, Kappa-type opioid receptor; assay: Displacement of [3H]-U69593 from human kappa opiod receptor expressed in CHO cells at 10 uM incubated for 60 mins by liquid scintillation counting method relative to control; type: cell-based
Mu-type opioid receptor [5] = biological target: T1, Mu-type opioid receptor; assay: Displacement of [3H]-DAMGO from human mu opiod receptor expressed in CHO cells at 10 uM incubated for 60 mins by liquid scintillation counting method relative to control; type: cell-based
[6] = biological target: T2, Delta-type opioid receptor; assay: Displacement of [3H]-DPDPE from human delta opiod receptor expressed in human HEK293 cells at 1 uM incubated for 60 mins by liquid scintillation counting method relative to control; type: cell-based
Mu-type opioid receptor [7] = biological target: T1, Mu-type opioid receptor; assay: Displacement of [3H]-DAMGO from human mu opiod receptor expressed in CHO cells incubated for 60 mins by liquid scintillation counting method; type: cell-based
[8] = biological target: T2, Delta-type opioid receptor; assay: Displacement of [3H]-DPDPE from human delta opiod receptor expressed in human HEK293 cells incubated for 60 mins by liquid scintillation counting method; type: cell-based
Homo sapiens [9] = species on record: Homo sapiens; assay: Selectivity index, ratio of Ki for human delta opiod receptor expressed […] for human kappa opiod receptor expressed in CHO cells; type: cell-based
Homo sapiens [10] = species on record: Homo sapiens; assay: Selectivity index, ratio of Ki for human mu opiod receptor expressed in CHO cells to Ki for human kappa opiod receptor expressed in CHO cells; type: cell-based
[11] = biological target: T3, Kappa-type opioid receptor; assay: Displacement of [3H]-U69593 from human kappa opiod receptor expressed in CHO cells incubated for 60 mins by liquid scintillation counting method; type: cell-based
Homo sapiens [12] = species on record: Homo sapiens; assay: Selectivity index, ratio of IC50 for human mu opiod receptor expressed in CHO cells to IC50 for human kappa opiod receptor expressed in CHO cells; type: cell-based
[13] = biological target: T3, Kappa-type opioid receptor; assay: Antagonist activity at human kappa opiod receptor expressed in CHO cells assessed as inhibition of U69593-induced [35S]GTPgammaS binding incubated for 4 hrs by microbeta liquid scintillation counting method; type: functional, cell-based
Homo sapiens [14] = species on record: Homo sapiens; assay: Selectivity index, ratio of IC50 for human delta opiod receptor expressed in HEK293 cells to IC50 for human kappa opiod receptor expressed in CHO cells
[15] = biological target: T2, Delta-type opioid receptor; assay: Antagonist activity at human delta opiod receptor expressed in human HEK293 cells assessed as inhibition of DPDPE-induced [35S]GTPgammaS binding incubated for 2 hrs by microbeta liquid scintillation counting method; type: functional, cell-based
Mu-type opioid receptor [16] = biological target: T1, Mu-type opioid receptor; assay: Antagonist activity at human mu opiod receptor expressed in CHO cells assessed as inhibition of DAMGO-induced [35S]GTPgammaS binding incubated for 4 hrs by microbeta liquid scintillation counting method; type: functional, cell-based

T1 sequence (P35372 whole entry): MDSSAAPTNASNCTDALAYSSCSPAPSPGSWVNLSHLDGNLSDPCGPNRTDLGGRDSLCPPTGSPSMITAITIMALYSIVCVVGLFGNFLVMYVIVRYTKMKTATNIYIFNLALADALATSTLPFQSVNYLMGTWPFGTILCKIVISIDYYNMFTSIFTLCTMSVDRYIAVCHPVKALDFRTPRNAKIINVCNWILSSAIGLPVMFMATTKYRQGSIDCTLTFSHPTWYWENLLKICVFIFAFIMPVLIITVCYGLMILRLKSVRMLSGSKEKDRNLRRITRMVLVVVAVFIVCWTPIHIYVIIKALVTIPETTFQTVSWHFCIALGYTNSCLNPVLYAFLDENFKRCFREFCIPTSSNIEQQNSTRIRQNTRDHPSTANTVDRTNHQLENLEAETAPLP

Row | Structure (SMILES) | inhibition (Mu-type opioid receptor [1]) | inhibition [2] | inhibition [3] | inhibition [4] | inhibition (Mu-type opioid receptor [5]) | inhibition [6] | Ki (Mu-type opioid receptor [7]) | Ki [8] | Ratio Ki (Homo sapiens [9]) | Ratio Ki (Homo sapiens [10]) | Ki [11] | Ratio IC50 (Homo sapiens [12]) | IC50 [13] | Ratio IC50 (Homo sapiens [14]) | IC50 [15] | IC50 (Mu-type opioid receptor [16])
1 | COc1cccc(C2CCCN2Cc2ccc(Oc3ccc(C(=O)NO)cc3)cc2)c1 (stereo not given) | 13.5% | 7.1% | 33.8% | 84.3% | 31.6% | 0% |  |  |  |  |  |  |  |  |  | 
2 | O=c1[nH]oc2cc(Oc3ccc(CN4CCCC4c4ccc(Cl)cc4)cc3)ccc12 (stereo not given) | 47% | 35.9% | 57.6% | 83.5% | 54.5% | 15.7% |  |  |  |  |  |  |  |  |  | 
3 | Cc1cc(C)cc(C2CCCN2Cc2ccc(Oc3ccc4c(=O)[nH]oc4c3F)c(Cl)c2)c1 (stereo not given) | 21.4% | 32.9% | 20.1% | 47.4% | 45.7% | 18% |  |  |  |  |  |  |  |  |  | 
4 | COc1cccc(C2CCCN2Cc2ccc(Oc3ccc(C(=O)NO)cc3F)cc2)c1 (stereo not given) | 22.6% |  | 42.5% | 80.4% | 64.4% |  |  |  |  |  |  |  |  |  |  | 
5 | O=c1[nH]oc2c(F)c(Oc3ccc(CN4CCCC4c4cccc(F)c4)cc3)ccc12 (stereo not given) | 0% | 52.5% | 0% | 24.8% | 0% | 20.7% |  |  |  |  |  |  |  |  |  | 
6 | O=C(NO)c1ccc(Oc2ccc(CN3CCCC3c3ccccc3)cc2)cc1 (stereo not given) | 21.9% | 13.8% | 51.6% | 85.3% | 45.9% | 0% |  |  |  |  |  |  |  |  |  | 
7 | Cc1cc(C)cc(C2CCCN2Cc2ccc(Oc3ccc4c(=O)[nH]oc4c3)c(Cl)c2)c1 (stereo not given) | 0% | 16.9% | 23.8% | 69.8% | 9.8% | 0% |  |  |  |  |  |  |  |  |  | 
8 | COc1cccc(C2CCCN2Cc2ccc(Oc3ccc4c(=O)[nH]oc4c3Cl)cc2)c1 (stereo not given) | 0% | 60.6% | 0% | 0% | 0% | 19.7% |  |  |  |  |  |  |  |  |  | 
9 | O=c1[nH]oc2c(Cl)c(Oc3ccc(CN4CCCC4c4ccc(Cl)cc4)cc3)ccc12 (stereo not given) | 21.7% | 52.2% | 0% | 0% | 41.1% | 23.9% |  |  |  |  |  |  |  |  |  | 
10 | O=C(NO)c1ccc(Oc2ccc(CN3CCCC3c3cccc(F)c3)cc2)c(F)c1 (stereo not given) | 25.8% | 28.4% | 45.8% | 80.6% | 73.2% | 16.8% | 2800 nM | > 10000 nM | > 20 | 4.6 | 498 nM |  |  |  |  | 
11 | O=C(NO)c1ccc(Oc2ccc(CN3CCCC3c3cccc(Cl)c3)cc2)c(F)c1 (stereo not given) | 16.5% | 26.4% | 30.9% | 54.7% | 57.3% | 0% |  |  |  |  |  |  |  |  |  | 
12 | Cc1cc(C)cc(C2CCCN2Cc2ccc(Oc3ccc4c(=O)[nH]oc4c3)c(F)c2)c1 (stereo not given) | 0% | 10.7% | 37.2% | 85.2% | 9.5% | 0% |  |  |  |  |  |  |  |  |  | 
13 | Cc1cc(C)cc(C2CCCN2Cc2ccc(Oc3ccc4c(=O)[nH]oc4c3F)c(F)c2)c1 (stereo not given) | 9.4% | 49.3% | 26.7% | 56.9% | 37.3% | 17.2% |  |  |  |  |  |  |  |  |  | 
14 | O=C(NO)c1ccc(Oc2ccc(CN3CCCC3c3ccc(Cl)cc3)cc2)c(F)c1 (stereo not given) | 0% | 34.4% | 46.1% | 74.3% | 25.8% | 25.6% |  |  |  |  |  |  |  |  |  | 
15 | O=c1[nH]oc2c(F)c(Oc3ccc(CN4CCCC4c4ccc(Cl)cc4)cc3)ccc12 (stereo not given) | 22.5% | 9.6% | 0% | 39.2% | 35.8% | 0% |  |  |  |  |  |  |  |  |  | 
16 | COc1ccc(C2CCCN2Cc2ccc(Oc3ccc4c(=O)[nH]oc4c3F)cc2)cc1 (stereo not given) | 19.2% | 49.7% | 0% | 19.1% | 41% | 23.7% |  |  |  |  |  |  |  |  |  | 
17 | Cc1cc(C)cc(C2CCCN2Cc2ccc(Oc3ccc4c(=O)[nH]oc4c3)cc2)c1 (stereo not given) | 49.4% | 54.8% | 70.6% | 91.6% | 74% | 33.9% | 1480 nM | 5010 nM | 3.5 | 1 | 1410 nM |  |  |  |  | 
18 | COc1ccc(C2CCCN2Cc2ccc(Oc3ccc4c(=O)[nH]oc4c3Cl)cc2)cc1 (stereo not given) | 17.7% | 39.3% | 18.8% | 39.9% | 32.2% | 18% |  |  |  |  |  |  |  |  |  | 
19 | O=c1[nH]oc2c(Cl)c(Oc3ccc(CN4CCCC4c4cccc(F)c4)cc3)ccc12 (stereo not given) | 0% | 37.9% | 0% | 16.2% | 0% | 8.5% |  |  |  |  |  |  |  |  |  | 
20 | COc1ccc(C2CCCN2Cc2ccc(Oc3ccc(C(=O)NO)cc3F)cc2)cc1 (stereo not given) | 11% | 15.8% | 34.9% | 77.4% | 43.1% | 6.2% |  |  |  |  |  |  |  |  |  | 
21 | COc1ccc(C2CCCN2Cc2ccc(Oc3ccc(C(=O)NO)cc3)cc2)cc1 (stereo not given) | 12.8% | 24.4% | 52.3% | 86% | 40.4% | 3.9% | 2310 nM | > 10000 nM | > 55.5 | 12.8 | 180 nM | 1.1 | 178 nM | > 28 | > 5000 nM | 202 nM
22 | COc1cc(CN2CCCC2c2cc(C)cc(C)c2)ccc1Oc1ccc2c(=O)[nH]oc2c1 (stereo not given) | 14.3% | 49.1% | 38.4% | 73.2% | 59.2% | 11.6% |  |  |  |  |  |  |  |  |  | 
23 | COc1ccc(C2CCCN2Cc2ccc(Oc3ccc4c(=O)[nH]oc4c3)cc2)cc1 (stereo not given) | 42.2% | 40.7% | 55.7% | 66.9% | 50.6% | 33.3% |  |  |  |  |  |  |  |  |  | 
24 | O=c1[nH]oc2c(F)c(Oc3ccc(CN4CCCC4c4cccc(Cl)c4)cc3)ccc12 (stereo not given) | 0% | 38.2% | 20% | 57.2% | 0% | 0% |  |  |  |  |  |  |  |  |  | 
25 | Cc1cc(C)cc(C2CCCN2Cc2ccc(Oc3ccc4c(=O)[nH]oc4c3Cl)cc2)c1 (stereo not given) | 0% | 22.3% | 0% | 11.6% | 0% | 0% |  |  |  |  |  |  |  |  |  | 
26 | Cc1cc(C)cc(C2CCCN2Cc2ccc(Oc3ccc(C(N)=O)cc3F)cc2)c1 (racemic) | 52.7% |  |  |  | 87.2% | 49.5% | 93.7 nM | 105 nM | 7.5 | 6.7 | 14 nM | 3.8 | 7.7 nM | 14.1 | 109 nM | 29.4 nM
27 | Cc1cc(C)cc(C2CCCN2Cc2ccc(Oc3ccc4c(=O)[nH]oc4c3F)cc2)c1 (stereo not given) | 0% | 33.3% | 0% | 36.4% | 21.1% | 0% |  |  |  |  |  |  |  |  |  | 
28 | O=c1[nH]oc2c(Cl)c(Oc3ccc(CN4CCCC4c4cccc(Cl)c4)cc3)ccc12 (stereo not given) | 19.2% | 44.9% | 0% | 45.4% | 32.5% | 0% |  |  |  |  |  |  |  |  |  | 
29 | Cc1cc(C)cc(C2CCCN2Cc2ccc(Oc3ccc(C(=O)NO)cc3)cc2)c1 (stereo not given) | 10.7% | 6.5% | 39.5% | 84.7% | 36% | 0% |  |  |  |  |  |  |  |  |  | 
30 | COc1cccc(C2CCCN2Cc2ccc(Oc3ccc4c(=O)[nH]oc4c3F)cc2)c1 (stereo not given) | 0% | 28.4% | 9.7% | 29% | 6.2% | 0% |  |  |  |  |  |  |  |  |  | 

Reference: ChEMBL document CHEMBL4619756, “Design, synthesis and biological evaluation of N-hydroxy-aminobenzyloxyarylamide analogues as novel selective κ opioid receptor antagonists” (Bioorg Med Chem Lett, 2020)
